What was measured:
M. morganii = assay: Molecular phenotypic antimicrobial susceptibility test, specimen with two detected pathogens incubated together without isolation; assay type: cell-based, Morganella morganii; conditions: M. morganii in specimen with two detected pathogens (E. coli and M. morganii) incubated together; for Ct of Sensitive Breakpoint: Ct of controls (average) 19.99; for Molecular Antimicrobial Susceptibility Result: at sensitive breakpoint
Method: Detection of Molecular Phenotypic Antimicrobial Susceptibility. Disclosed herein are the methods for the detection of phenotypic antimicrobial susceptibility via molecular methods. The present invention describes how a specimen 100 with a known microbial load is incubated and then exposed to a panel of antimicrobial agents to determine sensitivity (prevention of growth) or resistance (allowance of growth) to the specific antimicrobial agents tested utilizing molecular methods.
Sample Collection. Specimens 100 are collected from patients using sterile collection processes that are employed in routine clinical care. Specimens are transported to the testing facility in boric acid preservative. Specimens 100 are subsequently divided into a first sample 104 and a second sample 108.
Preparation of the Specimens for Testing. The specimens 100 are put through a pathogen identification process using PCR technology (e.g., using the first sample 104). The process for pathogen isolation includes steps of harvesting the pathogen (e.g., via centrifugation), isolating pathogen DNA via a DNA isolation and/or purification kit, and performing PCR on the pathogen DNA via PCR components (e.g., primers, enzymes, buffers) as would be known to the skilled artisan. Simultaneously, an additional aliquot of the same specimen (e.g., the second sample 108) is placed with liquid culture media and incubated for 4-6 hours. This aliquot is used for antimicrobial susceptibility testing if indicated based on the pathogen detection results. After pathogen identification is completed and if more than 10,000 cells/mL of bacteria (e.g., eligible bacteria) are detected in the source specimen, the second sample 108 then enters the antimicrobial susceptibility phase of testing. Specimens 100 with lower pathogen loads could also be utilized in the antibiotic susceptibility phase of testing with or without a longer incubation period.
Preparation of Antimicrobial Susceptibility Testing Plates. Antimicrobial solutions are prepared at known concentrations. The specific antimicrobials and their concentrations are selected based on the pathogen of interest and the described antimicrobial resistance breakpoints for that specimen pathogen and antimicrobial combination. These antimicrobials have been selected based on those commonly utilized by healthcare providers in routine clinical care for the specific type of suspected infection. The number and types of antimicrobials utilized can be customized based on the infection source, pathogen detected, patient-specific factors such as allergies or other health conditions (e.g., chronic kidney disease or concurrent medication use), or healthcare provider preferences such as antimicrobial availability or cost.
The antimicrobial solutions are prepared in liquid culture media (such as Muller Hinton Broth) to achieve the desired antimicrobial concentration and are then stored at −80° C. until use. For a given specimen, each antimicrobial is tested at a single or multiple antimicrobial concentration(s) which is its established breakpoints for sensitivity. The antimicrobial solutions are prepared and plated out for each specific pathogen. This allows ease of use on the day of testing after defrosting the plate 112. Table 1, which illustrates the results of molecular phenotypic antimicrobial susceptibility testing when more than one organism is present in the source specimen, provides an example of an antimicrobial plate 112 prepared for this purpose. Of note, control wells containing only culture media are present on all plates 112. This allows for evaluation of pathogen load when no antimicrobial is present.
Specimen Exposure to Antimicrobial Agents. The 1 mL aliquot of the specimen 100 previously mixed with culture media and incubated is obtained. Using optical density measurements as a guide, the specimen 100 is diluted to 0.5 McFarland. […]

pathogen of the specimen = assay: Molecular phenotypic antimicrobial susceptibility test with direct PCR at various incubation timepoints (Table 7); assay type: cell-based
How it was run: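 Specimens with known microbial load are cultured, diluted to 0.5 McFarland using optical density, then exposed to antimicrobials prepared in liquid culture media (e.g., Muller Hinton Broth) at their established sensitivity breakpoint concentrations. After incubation, samples are lysed with buffer in a thermal cycler and analyzed by direct semi-quantitative PCR, with antimicrobial-free control wells serving as the susceptibility threshold.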

[1] = E. coli isolate 1189, antibiotic incubation time 4 hours
[2] = E. coli isolate 1189, antibiotic incubation time 4 hours, control average Ct […]
[3] = E. coli isolate 1189, antibiotic incubation time 6 hours
[4] = E. coli isolate 1189, antibiotic incubation time 6 hours, control average Ct 16.992
[5] = E. coli isolate 1189, antibiotic incubation time 8 hours
[6] = E. coli isolate 1189, antibiotic incubation time 8 hours, control average Ct […]
[7] = E. coli isolate 1189, antibiotic incubation time 10 hours
[8] = E. coli isolate 1189, antibiotic incubation time 10 hours, control average Ct 15.995
[9] = E. coli isolate 1189, antibiotic incubation time 12 hours
[10] = E. coli isolate 1189, antibiotic incubation time 12 hours, control average Ct 15.495
[11] = E. coli isolate 1189, antibiotic incubation time 14 hours
[12] = E. coli isolate 1189, antibiotic incubation time 14 hours, control average Ct 15.826
[13] = E. coli isolate 1189, antibiotic incubation time 16 hours
[14] = E. coli isolate 1189, antibiotic incubation time 16 hours, control average Ct 14.880

O=C(O)c1cn(C2CC2)c2cc(N3CCNCC3)c(F)cc2c1=O [Ciprofloxacin]
Ct of Sensitive Breakpoint (M. morganii): 34.71
Molecular Antimicrobial Susceptibility Result (M. morganii): Sensitive (Antimicrobial wells with pathogen load detected below the control wells (typically >2 cycle thresholds later) may be reported as Sensitive)
Molecular Antimicrobial Susceptibility Result (pathogen of the specimen; [1]): Sensitive (Antimicrobial wells with pathogen load detected below the control wells (typically >2 cycle thresholds later) may be reported as Sensitive)
Ct at Sensitive Breakpoint (pathogen of the specimen; [2]): 27.666
Molecular Antimicrobial Susceptibility Result (pathogen of the specimen; [3]): Sensitive (Antimicrobial wells with pathogen load detected below the control wells (typically >2 cycle thresholds later) may be reported as Sensitive)
Ct at Sensitive Breakpoint (pathogen of the specimen; [4]): 27.144
Molecular Antimicrobial Susceptibility Result (pathogen of the specimen; [5]): Sensitive (Antimicrobial wells with pathogen load detected below the control wells (typically >2 cycle thresholds later) may be reported as Sensitive)
Ct at Sensitive Breakpoint (pathogen of the specimen; [6]): 28.104
Molecular Antimicrobial Susceptibility Result (pathogen of the specimen; [7]): Sensitive (Antimicrobial wells with pathogen load detected below the control wells (typically >2 cycle thresholds later) may be reported as Sensitive)
Ct at Sensitive Breakpoint (pathogen of the specimen; [8]): 27.715
Molecular Antimicrobial Susceptibility Result (pathogen of the specimen; [9]): Sensitive (Antimicrobial wells with pathogen load detected below the control wells (typically >2 cycle thresholds later) may be reported as Sensitive)
Ct at Sensitive Breakpoint (pathogen of the specimen; [10]): 27.182
Molecular Antimicrobial Susceptibility Result (pathogen of the specimen; [11]): Sensitive (Antimicrobial wells with pathogen load detected below the control wells (typically >2 cycle thresholds later) may be reported as Sensitive)
Ct at Sensitive Breakpoint (pathogen of the specimen; [12]): 27.128
Molecular Antimicrobial Susceptibility Result (pathogen of the specimen; [13]): Sensitive (Antimicrobial wells with pathogen load detected below the control wells (typically >2 cycle thresholds later) may be reported as Sensitive)
Ct at Sensitive Breakpoint (pathogen of the specimen; [14]): 28.446

CO[C@@]1(NC(=O)Cc2cccs2)C(=O)N2C(C(=O)O)=C(COC(N)=O)CS[C@@H]21 [Cefoxitin]
Ct of Sensitive Breakpoint (M. morganii): 23.01
Molecular Antimicrobial Susceptibility Result (M. morganii): Sensitive (Antimicrobial wells with pathogen load detected below the control wells (typically >2 cycle thresholds later) may be reported as Sensitive)
Molecular Antimicrobial Susceptibility Result (pathogen of the specimen; [1]): Resistant
Ct at Sensitive Breakpoint (pathogen of the specimen; [2]): 17.798
Molecular Antimicrobial Susceptibility Result (pathogen of the specimen; [3]): Resistant
Ct at Sensitive Breakpoint (pathogen of the specimen; [4]): 15.865
Molecular Antimicrobial Susceptibility Result (pathogen of the specimen; [5]): Resistant
Ct at Sensitive Breakpoint (pathogen of the specimen; [6]): 16.837
Molecular Antimicrobial Susceptibility Result (pathogen of the specimen; [7]): Resistant
Ct at Sensitive Breakpoint (pathogen of the specimen; [8]): 14.899
Molecular Antimicrobial Susceptibility Result (pathogen of the specimen; [9]): Resistant
Ct at Sensitive Breakpoint (pathogen of the specimen; [10]): 15.750
Molecular Antimicrobial Susceptibility Result (pathogen of the specimen; [11]): Resistant
Ct at Sensitive Breakpoint (pathogen of the specimen; [12]): 15.333
Molecular Antimicrobial Susceptibility Result (pathogen of the specimen; [13]): Resistant
Ct at Sensitive Breakpoint (pathogen of the specimen; [14]): 13.704

Cc1nnc(SCC2=C(C(=O)O)N3C(=O)[C@@H](NC(=O)Cn4cnnn4)[C@H]3SC2)s1 [Cefazolin]
Ct of Sensitive Breakpoint (M. morganii): 21.60
Molecular Antimicrobial Susceptibility Result (M. morganii): Resistant
Molecular Antimicrobial Susceptibility Result (pathogen of the specimen; [1]): Resistant
Ct at Sensitive Breakpoint (pathogen of the specimen; [2]): 16.209
Molecular Antimicrobial Susceptibility Result (pathogen of the specimen; [3]): Resistant
Ct at Sensitive Breakpoint (pathogen of the specimen; [4]): 16.328
Molecular Antimicrobial Susceptibility Result (pathogen of the specimen; [5]): Resistant
Ct at Sensitive Breakpoint (pathogen of the specimen; [6]): 17.305
Molecular Antimicrobial Susceptibility Result (pathogen of the specimen; [7]): Resistant
Ct at Sensitive Breakpoint (pathogen of the specimen; [8]): 15.756
Molecular Antimicrobial Susceptibility Result (pathogen of the specimen; [9]): Resistant
Ct at Sensitive Breakpoint (pathogen of the specimen; [10]): 15.126
Molecular Antimicrobial Susceptibility Result (pathogen of the specimen; [11]): Resistant
Ct at Sensitive Breakpoint (pathogen of the specimen; [12]): 17.599
Molecular Antimicrobial Susceptibility Result (pathogen of the specimen; [13]): Resistant
Ct at Sensitive Breakpoint (pathogen of the specimen; [14]): 15.199

Piperacillin/Tazobactam
Ct of Sensitive Breakpoint (M. morganii): 29.64
Molecular Antimicrobial Susceptibility Result (M. morganii): Sensitive (Antimicrobial wells with pathogen load detected below the control wells (typically >2 cycle thresholds later) may be reported as Sensitive)
Molecular Antimicrobial Susceptibility Result (pathogen of the specimen; [1]): Sensitive (Antimicrobial wells with pathogen load detected below the control wells (typically >2 cycle thresholds later) may be reported as Sensitive)
Ct at Sensitive Breakpoint (pathogen of the specimen; [2]): 20.904
Molecular Antimicrobial Susceptibility Result (pathogen of the specimen; [3]): Sensitive (Antimicrobial wells with pathogen load detected below the control wells (typically >2 cycle thresholds later) may be reported as Sensitive)
Ct at Sensitive Breakpoint (pathogen of the specimen; [4]): 21.624
Molecular Antimicrobial Susceptibility Result (pathogen of the specimen; [5]): Sensitive (Antimicrobial wells with pathogen load detected below the control wells (typically >2 cycle thresholds later) may be reported as Sensitive)
Ct at Sensitive Breakpoint (pathogen of the specimen; [6]): 21.570
Molecular Antimicrobial Susceptibility Result (pathogen of the specimen; [7]): Sensitive (Antimicrobial wells with pathogen load detected below the control wells (typically >2 cycle thresholds later) may be reported as Sensitive)
Ct at Sensitive Breakpoint (pathogen of the specimen; [8]): 22.310
Molecular Antimicrobial Susceptibility Result (pathogen of the specimen; [9]): Sensitive (Antimicrobial wells with pathogen load detected below the control wells (typically >2 cycle thresholds later) may be reported as Sensitive)
Ct at Sensitive Breakpoint (pathogen of the specimen; [10]): 22.359
Molecular Antimicrobial Susceptibility Result (pathogen of the specimen; [11]): Sensitive (Antimicrobial wells with pathogen load detected below the control wells (typically >2 cycle thresholds later) may be reported as Sensitive)
Ct at Sensitive Breakpoint (pathogen of the specimen; [12]): 24.257
Molecular Antimicrobial Susceptibility Result (pathogen of the specimen; [13]): Sensitive (Antimicrobial wells with pathogen load detected below the control wells (typically >2 cycle thresholds later) may be reported as Sensitive)
Ct at Sensitive Breakpoint (pathogen of the specimen; [14]): 24.143

CC1(C)S[C@@H]2[C@H](NC(=O)[C@H](N)c3ccccc3)C(=O)N2[C@H]1C(=O)O [Ampicillin]
Ct of Sensitive Breakpoint (M. morganii): 20.73
Molecular Antimicrobial Susceptibility Result (M. morganii): Resistant
Molecular Antimicrobial Susceptibility Result (pathogen of the specimen; [1]): Resistant
Molecular Antimicrobial Susceptibility Result (pathogen of the specimen; [3]): Resistant
Ct at Sensitive Breakpoint (pathogen of the specimen; [4]): 15.362
Molecular Antimicrobial Susceptibility Result (pathogen of the specimen; [5]): Resistant
Molecular Antimicrobial Susceptibility Result (pathogen of the specimen; [7]): Resistant
Molecular Antimicrobial Susceptibility Result (pathogen of the specimen; [9]): Resistant
Ct at Sensitive Breakpoint (pathogen of the specimen; [10]): 15.183
Molecular Antimicrobial Susceptibility Result (pathogen of the specimen; [11]): Resistant
Ct at Sensitive Breakpoint (pathogen of the specimen; [12]): 15.465
Molecular Antimicrobial Susceptibility Result (pathogen of the specimen; [13]): Resistant
Ct at Sensitive Breakpoint (pathogen of the specimen; [14]): 15.036
